Measurements taken from ChEMBL document CHEMBL1144464, “Mutations in fusA associated with posttherapy fusidic acid resistance in Clostridium difficile” (2007).
Values after ≈ are worked out from the molar mass of the structure shown.

What was measured:
Assay type in all cases: functional
[1] = system: Clostridioides difficile; assay: Antibacterial activity against fusidic acid resistant Clostridium difficile 26:3 isolate with fusA M16I and H455N mutation after 35 to 40 days
[2] = system: Clostridioides difficile; assay: Antibacterial activity against fusidic acid resistant Clostridium difficile 100:2 isolate with fusA V119A mutation after 8 to 13 days
[3] = system: Clostridioides difficile; assay: Antibacterial activity against fusidic acid resistant Clostridium difficile 49:3 isolate with fusA S116L and A374V mutation after 35 to 40 days
[4] = system: Clostridioides difficile; assay: Antibacterial activity against fusidic acid resistant Clostridium difficile 73:1 isolate after 1 day; conditions: 24 h
[5] = system: Clostridioides difficile; assay: Antibacterial activity against fusidic acid resistant Clostridium difficile 62:2 isolate after 8 to 13 days
[6] = system: Clostridioides difficile; assay: Antibacterial activity against fusidic acid resistant Clostridium difficile 73:2 isolate with fusA I459R mutation after 8 to 13 days
[7] = system: Clostridioides difficile; assay: Antibacterial activity against fusidic acid resistant Clostridium difficile 49:2 isolate after 8 to 13 days
[8] = system: Clostridioides difficile; assay: Antibacterial activity against fusidic acid resistant Clostridium difficile 62:1 isolate after 1 day; conditions: 24 h
[9] = system: Clostridioides difficile; assay: Antibacterial activity against fusidic acid resistant Clostridium difficile 62:3 isolate with fusA A375 deletion after 35 to 40 days
[10] = system: Clostridioides difficile; assay: Antibacterial activity against fusidic acid resistant Clostridium difficile 58:1 isolate with fusA H455Q mutation after 1 day; conditions: 24 h
[11] = system: Clostridioides difficile; assay: Antibacterial activity against fusidic acid resistant Clostridium difficile 51:2 isolate with fusA S449P mutation after 8 to 13 days
[12] = system: Clostridioides difficile; assay: Antibacterial activity against fusidic acid resistant Clostridium difficile 26:2 isolate with fusA D432N mutation after 8 to 13 days
[13] = system: Clostridioides difficile; assay: Antibacterial activity against fusidic acid resistant Clostridium difficile 72:1 isolate after 1 day; conditions: 24 h
[14] = system: Clostridioides difficile; assay: Antibacterial activity against fusidic acid resistant Clostridium difficile 248:3 isolate with fusA H455R mutation after 35 to 40 days
[15] = system: Clostridioides difficile; assay: Antibacterial activity against fusidic acid resistant Clostridium difficile 51:1 isolate after 1 day; conditions: 24 h
[16] = system: Clostridioides difficile; assay: Antibacterial activity against fusidic acid resistant Clostridium difficile 107:3 isolate with fusA A459R mutation after 35 to 40 days
[17] = system: Clostridioides difficile; assay: Antibacterial activity against fusidic acid resistant Clostridium difficile 57:1 isolate after 1 day; conditions: 24 h
[18] = system: Clostridioides difficile; assay: Antibacterial activity against fusidic acid resistant Clostridium difficile 100:1 isolate after 1 day; conditions: 24 h
[19] = system: Clostridioides difficile; assay: Antibacterial activity against fusidic acid resistant Clostridium difficile 248:1 isolate after 1 day; conditions: 24 h
[20] = system: Clostridioides difficile; assay: Antibacterial activity against fusidic acid resistant Clostridium difficile 63:1 isolate after 1 day; conditions: 24 h
[21] = system: Clostridioides difficile; assay: Antibacterial activity against fusidic acid resistant Clostridium difficile 107:1 isolate after 1 day; conditions: 24 h
[22] = system: Clostridioides difficile; assay: Antibacterial activity against fusidic acid resistant Clostridium difficile 72:2 isolate with fusA S116L and A374V mutation after 8 to 13 days
[23] = system: Clostridioides difficile; assay: Antibacterial activity against fusidic acid resistant Clostridium difficile 26:1 isolate after 1 day; conditions: 24 h
[24] = system: Clostridioides difficile; assay: Antibacterial activity against fusidic acid resistant Clostridium difficile 63:2 isolate with fusA T434I after 8 to 13 days
[25] = system: Clostridioides difficile; assay: Antibacterial activity against fusidic acid resistant Clostridium difficile 58:2 isolate with fusA H455Q mutation after 8 to 13 days
[26] = system: Clostridioides difficile; assay: Antibacterial activity against fusidic acid resistant Clostridium difficile 57:3 isolate with fusA S116L and A374V mutation after 35 to 40 days
[27] = system: Clostridioides difficile; assay: Antibacterial activity against fusidic acid resistant Clostridium difficile 49:1 isolate after 1 day; conditions: 24 h

CC(=O)O[C@H]1C[C@@]2(C)[C@@H](C[C@@H](O)[C@H]3[C@@]4(C)CC[C@@H](O)[C@@H](C)[C@@H]4CC[C@@]32C)/C1=C(\CCC=C(C)C)C(=O)O [FUSIDIC ACID]
MIC [1]: > 256 µg/mL
MIC [2]: > 256 µg/mL
MIC [3]: > 256 µg/mL
MIC [4]: 0.5 µg/mL (≈ 0.968 µM)
MIC [5]: 0.25 µg/mL (≈ 0.484 µM)
MIC [6]: > 256 µg/mL
MIC [7]: 0.25 µg/mL (≈ 0.484 µM)
MIC [8]: 0.25 µg/mL (≈ 0.484 µM)
MIC [9]: 4 µg/mL (≈ 7.74 µM)
MIC [10]: > 256 µg/mL
MIC [11]: > 256 µg/mL
MIC [12]: > 256 µg/mL
MIC [13]: 0.25 µg/mL (≈ 0.484 µM)
MIC [14]: > 256 µg/mL
MIC [15]: 0.25 µg/mL (≈ 0.484 µM)
MIC [16]: > 256 µg/mL
MIC [17]: 0.38 µg/mL (≈ 0.735 µM)
MIC [18]: 0.38 µg/mL (≈ 0.735 µM)
MIC [19]: 0.125 µg/mL (≈ 0.242 µM)
MIC [20]: 0.25 µg/mL (≈ 0.484 µM)
MIC [21]: 0.19 µg/mL (≈ 0.368 µM)
MIC [22]: > 256 µg/mL
MIC [23]: 0.38 µg/mL (≈ 0.735 µM)
MIC [24]: 64 µg/mL (≈ 124 µM)
MIC [25]: > 256 µg/mL
MIC [26]: > 256 µg/mL
MIC [27]: 0.25 µg/mL (≈ 0.484 µM)
